Laboratory results taken from publication PMC7897990, “TriTOX: A novel Trichomonas vaginalis assay platform for high-throughput screening of compound libraries” (International Journal for Parasitology: Drugs and Drug …, 2021).
Where two headings read alike, the source gives them in different places. Starred links: 1 amine or outer side, 2 acyl side, 3 side chain; linkers in the order of their positions; H or OH if unused. Positions of bridges follow the written chain, without caps; N, C: chain ends. Non-standard residues stand in square brackets, D forms with d. Residues, ends and D or L forms follow the SMILES beside them. *: point of attachment. Orn(4R-OH,5R-OH) = O=C([C@H](C[C@@H](O)[C@@H](O)N[*:3])N[*:1])[*:2]; Tetradecanoyl(10R,12S-Me2) = CC[C@H](C)C[C@H](C)CCCCCCCCC(=O)*; hTyr(3S-OH,4S-OH) = N[C@H](C(=O)O)[C@H](O)[C@@H](O)c1ccc(O)cc1; Gln(3R-OH) = NC(=O)C[C@@H](O)[C@H](N)C(=O)O; Pro(3S-OH) = O=C(O)[C@H]1NCC[C@@H]1O; Hyp = O=C(O)[C@@H]1C[C@@H](O)CN1

System: Trichomonas vaginalis G3 trophozoites
Details: for T.vaginalis_Absorbance_Rep1: replicate 1, raw absorbance; for T.vaginalis_Absorbance_Rep2: replicate 2, raw absorbance; for T. vaginalis HTS result in words: 384-well, 25 μL, 10,000 cells/mL, 48 h, biological duplicates, hit = >50% inhibition
[1] = HTS, parasite screen at 1 µg/mL, replicate 1
[2] = HTS, parasite screen at 1 µg/mL
[3] = HTS, parasite screen at 1 µg/mL, replicate 2
[4] = HTS replicate 1, parasite screen 1 µg/mL
[5] = HTS replicate 2, parasite screen 1 µg/mL

Row | Molecule | T.vaginalis_%inb_Rep1 [1] | T.vaginalis_Absorbance_Rep1 [2] | T.vaginalis_%inb_Rep2 [3] | T.vaginalis_Absorbance_Rep2 [2] | T.vaginalis_%inb_Rep1 [4] | T.vaginalis_%inb_Rep2 [5] | T. vaginalis HTS result in words
1 | CC(C)CCC[C@@H](C)[C@@H]1CC[C@]2(C)C3=C(CC[C@@]12C)[C@@]1(C)CC[C@H](O)C(C)(C)[C@@H]1CC3 [Dihydroeuphol] | 14.92% | 0.986 | 10.05% | 0.759 |  |  | 
2 | C=C(NC(=O)C(=C)NC(=O)c1ccc2c(n1)-c1coc(n1)C(=C)NC(=O)C(=C)NC(=O)c1nc(oc1C)C(=C)NC(=O)C(C(C)(C)O)NC(=O)C(=C)NC(=O)c1coc(n1)/C(=C/C)NC(=O)[C@H]([C@@H](C)O)NC(=O)c1csc-2n1)C(N)=O (stereo partly drawn) [Geninthiocin] | 14.25% | 0.983 | 12.51% | 0.83 |  |  | 
3 | C/C=C(/C)c1cc(O)c(C)c2c1Oc1c(C)c(O)cc(/C(C)=C\C)c1C(=O)O2 [Folipastatin] | 12.58% | 0.95 | 14.11% | 0.855 |  |  | 
4 | CN(C)C1C(=O)C(C(N)=O)=C(O)C2(O)C(=O)C3=C(O)c4c(O)cccc4C(C)(O)C3C(O)C12 (stereo not drawn) [Epioxytetracycline] | 13.46% | 0.959 | 17.43% | 0.861 |  |  | 
5 | CCC(C)C1NC(=O)c2c1n(C)c1ccccc1c2=O (stereo not drawn) [Quinolactacin A1] |  |  |  |  | 10.96% | 16.33% | 
6 | COC1=C(OC)C(O)C(C)C(C)C1=O (stereo not drawn) [Glioroseinol] | 11.16% | 0.922 | 1.92% | 0.665 |  |  | 
7 | CC[C@H](C)C[C@H](C)CCCCCCCCC(=O)N[C@H]1C[C@@H](O)[C@@H](O)NC(=O)[C@@H]2[C@@H](O)CCN2C(=O)[C@H]([C@H](O)CC(N)=O)NC(=O)[C@H]([C@H](O)[C@@H](O)c2ccc(O)cc2)NC(=O)[C@@H]2C[C@@H](O)CN2C(=O)[C@H]([C@@H](C)O)NC1=O [Pneumocandin B0] ({Tetradecanoyl(10R,12S-Me2)}-[Orn(4R-OH,5R-OH)]T[Hyp][hTyr(3S-OH,4S-OH)][Gln(3R-OH)][Pro(3S-OH)]; lactam 1-C) |  |  |  |  | 10.50% | 8.92% | 
8 | CC1=C[C@H]2C(=O)O[C@H]3C[C@@H](C/C=C(\C)C[C@@H](C)/C=C/C=C4\CO[C@H](/C1=N/O)[C@@]42O)O[C@@]1(CC[C@H](C)[C@@H](C)O1)C3 [Milbemycin A3 oxime] |  |  |  |  | 12.78% | 11.35% | 
9 | CO[C@H]1C[C@H](O[C@@H]2/C(C)=C/C[C@@H]3C[C@@H](C[C@]4(C=C[C@H](C)[C@@H](C5CCCCC5)O4)O3)OC(=O)[C@@H]3C=C(C)[C@@H](O)[C@H]4OC/C(=C\C=C\[C@@H]2C)[C@]43O)O[C@@H](C)[C@@H]1O [Doramectin monosaccharide] | 13.89% | 0.967 | 12.80% | 0.797 |  |  | 
10 | C=C1CC[C@H]2C(C)(C)CCC[C@]2(C)[C@H]1C[C@@]12C[C@H]3C(=O)N4CCC=C4C(=O)N3[C@@H]1Nc1ccccc12 [Drimentine B] | 15.40% | 0.995 | 15.26% | 0.831 |  |  | 
11 | Cn1c(=O)c(=Cc2ccccc2)[nH]c(=O)c1=Cc1ccccc1 [Piperafizine A] |  |  |  |  | 11.87% | 11.10% | 
12 | Cc1ncc(-c2c[nH]c3ccccc23)o1 [Pimprinine] |  |  |  |  | 11.61% | 11.80% | 
13 | CCC1OC2(CCC1C)CC1CC(CC=C(C)CC(C)C=CC=C3COC4C(O)C(C)=CC(C(=O)O1)C34O)O2 (stereo not drawn) [Milbemycin A4] |  |  |  |  | 12.17% | 12.96% | 
14 | COc1cc(O)c2c(c1)/C=C/CC(O)C(O)C(=O)/C=C/CC(C)OC2=O (stereo not drawn) [Oxozeaenol, (5E)-7-] |  |  |  |  | 8.42% | 13.66% | 
15 | O=C(O)c1c(=O)cccc2ssc12 [tropodithietic acid, reference compound] | 11.01% |  | 97.50% |  |  |  | partial hits
16 | Enniatin A |  | 0.983 |  | 0.865 |  |  | 
17 | Nc1cc2nc3ccccc3oc-2cc1=O [Questiomycin A] |  |  |  |  | 16.02% | 12.32% | 

Row | Molecule | T.vaginalis_%inb_Rep1 [1] | T.vaginalis_Absorbance_Rep1 [2] | T.vaginalis_%inb_Rep2 [3] | T.vaginalis_Absorbance_Rep2 [2] | T.vaginalis_%inb_Rep1 [4] | T.vaginalis_%inb_Rep2 [5] | T. vaginalis HTS result in words
18 | Cc1c2c(c(O)c3c(O)ccc(Cl)c13)C(=O)C1(O)C(O)=C(C(N)=O)C(=O)C(N(C)C)C1C2.Cl (stereo not drawn) | 10.90% | 0.917 | 9.56% | 0.784 |  |  | 
19 | CC1(C)CCC[C@]2(C)[C@@H](CO)C(CO)=CC[C@@H]12 [Drimendiol] | 13.84% | 0.966 | 11.64% | 0.781 |  |  | 
20 | CC(=O)OC[C@@]1(C)[C@@H]2C[C@H](OC(C)=O)[C@@]3(C)Oc4cc(-c5ccccc5)oc(=O)c4[C@H](O)[C@@H]3[C@@]2(C)CC[C@@H]1OC(C)=O [Phenylpyropene A] |  |  |  |  | 13.03% | 14.11% | 
21 | CC[C@]1(C)C[C@@H](OC(=O)CO)[C@]2(C)[C@H](C)CC[C@]3(CCC(=O)[C@H]32)[C@@H](C)[C@@H]1O [Dihydropleuromutilin] | 14.27% | 0.974 | 13.23% | 0.803 |  |  | 
22 | C[C@@H]1C=C2C(=O)O[C@@H]3CC[C@H](C1)[C@]23O [Galiellalactone] | 19.07% | 1.078 | 5.71% | 0.724 |  |  | 
23 | COc1cccc2nc3c(OC)cccc3nc12 [Dimethoxyphenazine, 1,6-] | 12.87% | 0.948 | 14.10% | 0.815 |  |  | 
24 | CC1=C[C@H]2C(=O)O[C@H]3C[C@@H](C/C=C(\C)[C@@H](O)[C@@H](C)/C=C/C=C4\CO[C@H]([C@@H]1O)[C@@]42O)O[C@@]1(C=C[C@H](C)[C@@H](C2CCCCC2)O1)C3 [Doramectin aglycone] | 13.62% | 0.962 | 12.44% | 0.792 |  |  | 
25 | CC[C@@H]1CCN[C@H](C(=O)N[C@@H]([C@H]2O[C@H](SC)[C@H](O)[C@@H](O)[C@H]2O)[C@H](C)Cl)C1 [Pirlimycin] |  |  |  |  | 5.02% | 5.77% | 
26 | O=C(O)C1CSC(c2ccccc2O)=N1 (stereo not drawn) [Dihydroaeruginoic acid] | 11.15% | 0.916 | 12.87% | 0.798 |  |  | 
27 | CC(=O)OC1CCC2(C)C3=C(CCC2C1(C)C)C1(C)CCC(C(C)CCC=C(C)C)C1(C)CC3 (stereo not drawn) [Euphol acetate] | 13.30% | 0.956 | 13.02% | 0.8 |  |  | 
28 | CC1(C)CC[C@]2(C)CC[C@]3(C)C4=CC[C@H]5C(C)(C)[C@@H](O)CC[C@]5(C)[C@H]4CC[C@@]3(C)[C@@H]2C1 [Multiflorenol] |  |  |  |  | 10.55% | 11.42% | 
29 | COc1cc([C@H]2[C@@]3(O)[C@H](O)[C@H]4C[C@]2(O)[C@](O)(C(=O)O4)[C@H]3C(=O)c2ccccc2)oc(=O)c1 [Enterocin] | 13.08% | 0.96 | 12.38% | 0.828 |  |  | 
30 | COC(=O)C1(O)CC2OC1(C)n1c3ccccc3c3c4c(c5c6ccccc6n2c5c31)C(=O)NC4 (stereo not drawn) [K252A, reference compound] |  |  |  |  |  |  | active analogues
31 | Elaiophylin |  | 0.954 |  | 0.689 |  |  | 
32 | COc1cc(CC2C(=O)OCC2Cc2ccc3c(c2)OCO3)ccc1O (stereo not drawn) [Pluviatolide] |  |  |  |  | 12.12% | 14.37% | 
33 | CC[C@H](C)[C@@H]1OC(=O)C(C)(C)[C@@H](O)[C@@H](Cc2ccccc2)OC(=O)[C@H](C(C)C)OC(=O)[C@@H](NC(=O)c2cccc(NC=O)c2O)[C@H](C)OC1=O [Neoantimycin] |  |  |  |  | 13.59% | 11.67% | 
34 | CN(C)C1C(=O)C(C(N)=O)=C(O)C2(O)C(=O)C3=C(O)c4c(O)ccc(Cl)c4C(C)(O)C3CC12.Cl (stereo not drawn) [Epichlortetracycline hydrochloride] | 7.49% | 0.848 | 3.76% | 0.672 |  |  | 
